Assay results: patent US20020177180A1, “pH-indicator based assay for selective enzymes” (ThermoGen, Inc., priority 1998, published 2002)

Columns and labels:
Type in all cases: biochemical
ThermoGen esterases = experiment: Initial screening (pH indicator): esters as substrates of the ThermoGen esterases, statements for the esterases as a group; conditions: for quality as substrate of the ThermoGen esterases (in words), enantiomer pairs: enantiomer pair library, Tables 8-12; for estimated enantioselectivities with ThermoGen esterases (in words): ratio of initial rates of enantiomer pairs; for quality as substrate of the ThermoGen esterases (in words): esters 1-31, initial screening
Protocol: (§1) Initial screening measures the initial rate of hydrolysis of different esters. The rate of reaction was measured by monitoring the release of protons using a pH indicator, 4-nitrophenol. In this assay, the yellow color of the phenoxide disappears as the reaction proceeds. The amount of ester hydrolyzed can be measured quantitatively, as is known in the art.
(§2) To survey the substrate selectivity of the ThermoGen esterases, the ability of the enzymes to hydrolyze thirty-one different commercially-available esters, Scheme 1 (FIG. 9, Table 6).
To evaluate the potential of the ThermoGen esterases for enantioselective reactions, the initial rates of hydrolysis of the esterases were measured using twenty-one pairs of enantiomers, Scheme 2, FIG. 10 and Tables 8-12. The ratio of these initial rates is an estimated enantioselectivity.

esterase E014 = experiment: Initial screening of ThermoGen esterases toward esters 1-31 (pH indicator), specific activity; conditions: 1 mM substrate, pH 7.2, 7 vol % acetonitrile, 25° C.
Protocol: as §1, §2

esterase E020 = experiment: as above; conditions: 1 mM substrate, pH 7.2, 7 vol % acetonitrile, 25° C.
Protocol: as §1, §2

esterase E006 = experiment: as above; conditions: 1 mM substrate, pH 7.2, 7 vol % acetonitrile, 25° C.
Protocol: as §1, §2

esterase E016 = experiment: as above; conditions: 1 mM substrate, pH 7.2, 7 vol % acetonitrile, 25° C.
Protocol: as §1, §2

esterase E015 = experiment: as above; conditions: 1 mM substrate, pH 7.2, 7 vol % acetonitrile, 25° C.
Protocol: as §1, §2

esterase E012 = experiment: as above; conditions: 1 mM substrate, pH 7.2, 7 vol % acetonitrile, 25° C.
Protocol: as §1, §2

esterase E011 = experiment: as above; conditions: 1 mM substrate, pH 7.2, 7 vol % acetonitrile, 25° C.
Protocol: as §1

Structure (SMILES) | quality as substrate of the ThermoGen esterases (in words), enantiomer pairs (ThermoGen esterases) | estimated enantioselectivities with ThermoGen esterases (in words) (ThermoGen esterases) | quality as substrate of the ThermoGen esterases (in words) (ThermoGen esterases) | Specific activity, esterase E014 (esterase E014) | Specific activity, esterase E020 (esterase E020) | Specific activity, esterase E006 (esterase E006) | Specific activity, esterase E016 (esterase E016) | Specific activity, esterase E015 (esterase E015) | Specific activity, esterase E012 (esterase E012) | Specific activity, esterase E011 (esterase E011)
CC1(C)COC(=O)C1O (single isomer, unassigned) [Substrate 52] | poorest substrates | – | – | – | – | – | – | – | – | –
COC(=O)C(C)N (single isomer, unassigned) [Substrate 47] | poorest substrates | estimated enantioselectivities above two with several esterases | – | – | – | – | – | – | – | –
COC(=O)CO [Substrate 20] | – | – | usually poor substrates | <0.1 mmol ester hydrolyzed/min/mg protein | <0.2 mmol ester hydrolyzed/min/mg protein | 0.11 mmol ester hydrolyzed/min/mg protein | <2 mmol ester hydrolyzed/min/mg protein | <0.1 mmol ester hydrolyzed/min/mg protein | <2 mmol ester hydrolyzed/min/mg protein | <0.1 mmol ester hydrolyzed/min/mg protein
CC(C)(C)CC(=O)Oc1ccc2nc3ccc(=O)cc-3oc2c1 [Substrate 10, Resorufin t-butylacetate (resorufin 3,3-dimethylbutyrate), reference compound] | – | – | good substrate for several esterases | 1.0 mmol ester hydrolyzed/min/mg protein | 14 mmol ester hydrolyzed/min/mg protein | 5.7 mmol ester hydrolyzed/min/mg protein | 50 mmol ester hydrolyzed/min/mg protein | 5.9 mmol ester hydrolyzed/min/mg protein | 22 mmol ester hydrolyzed/min/mg protein | 2.7 mmol ester hydrolyzed/min/mg protein
CCCCCCCC(=O)OCC1COC(C)(C)O1 (single isomer, unassigned) [Substrate 35] | best substrates | – | – | – | – | – | – | – | – | –
C=COC(=O)C(C)(C)C [Substrate 11] | – | – | poor substrate for all the esterases | 0.40 mmol ester hydrolyzed/min/mg protein | 1.2 mmol ester hydrolyzed/min/mg protein | 0.52 mmol ester hydrolyzed/min/mg protein | 20 mmol ester hydrolyzed/min/mg protein | 4.0 mmol ester hydrolyzed/min/mg protein | 16 mmol ester hydrolyzed/min/mg protein | 0.80 mmol ester hydrolyzed/min/mg protein
CCOC(=O)C1CCC(=O)N1 (single isomer, unassigned) [Substrate 48] | poorest substrates | – | – | – | – | – | – | – | – | –
COC(=O)C(C)Cl (single isomer, unassigned) [Substrate 45] | – | higher estimated enantioselectivities with most ThermoGen esterases | – | – | – | – | – | – | – | –
CC1(COC(=O)c2ccc([N+](=O)[O-])cc2)CO1 (single isomer, unassigned) [Substrate 34] | – | estimated enantioselectivities above two with several esterases | – | – | – | – | – | – | – | –
CCCC(=O)OCC1COC(C)(C)O1 (single isomer, unassigned) [Substrate 32] | best substrates | – | – | – | – | – | – | – | – | –
COC(=O)C(O)c1ccccc1 (single isomer, unassigned) [Substrate 46] | poorest substrates | – | – | – | – | – | – | – | – | –
CCOC(=O)C(F)(F)F [Substrate 17] | – | – | best substrates | 1.4 mmol ester hydrolyzed/min/mg protein | 0.35 mmol ester hydrolyzed/min/mg protein | 1.7 mmol ester hydrolyzed/min/mg protein | 1500 mmol ester hydrolyzed/min/mg protein | 190 mmol ester hydrolyzed/min/mg protein | 1200 mmol ester hydrolyzed/min/mg protein | 2.7 mmol ester hydrolyzed/min/mg protein
CCCC(=O)OCC [Substrate 13] | – | – | reacted much slower | 0.40 mmol ester hydrolyzed/min/mg protein | 3.0 mmol ester hydrolyzed/min/mg protein | 1.1 mmol ester hydrolyzed/min/mg protein | 3.5 mmol ester hydrolyzed/min/mg protein | 2.0 mmol ester hydrolyzed/min/mg protein | <2 mmol ester hydrolyzed/min/mg protein | 0.71 mmol ester hydrolyzed/min/mg protein
COC(=O)C(N)Cc1c[nH]c2ccccc12 (single isomer, unassigned) [Substrate 50] | – | estimated enantioselectivities above two with several esterases | – | – | – | – | – | – | – | –
COC(=O)CC(C)O (single isomer, unassigned) [Substrate 40] | poorest substrates | – | – | – | – | – | – | – | – | –
O=C(OCC1CO1)c1ccc([N+](=O)[O-])cc1 (single isomer, unassigned) [Substrate 33] | best substrates | – | – | – | – | – | – | – | – | –
O=C1CCC(CO)O1 (single isomer, unassigned) [Substrate 51] | poorest substrates | – | – | – | – | – | – | – | – | –
COC(=O)C1COC(C)(C)O1 (single isomer, unassigned) [Substrate 43] | – | estimated enantioselectivities above two with several esterases | – | – | – | – | – | – | – | –
CC(=O)OC1CC(C)CCC1C(C)C (stereo not drawn) [Substrate 36] | – | estimated enantioselectivities above two with several esterases | – | – | – | – | – | – | – | –
COC(=O)C(C)CO (single isomer, unassigned) [Substrate 39] | poorest substrates | – | – | – | – | – | – | – | – | –
NC(Cc1ccccc1)C(=O)Oc1ccc([N+](=O)[O-])cc1.O=C(O)C(F)(F)F (racemic) [Substrate 3, D,L-phenylalanine-4-nitrophenol ester TFA salt, reference compound] | – | – | – | 180 mmol ester hydrolyzed/min/mg protein | 550 mmol ester hydrolyzed/min/mg protein | 410 mmol ester hydrolyzed/min/mg protein | 230 mmol ester hydrolyzed/min/mg protein | 280 mmol ester hydrolyzed/min/mg protein | 37 mmol ester hydrolyzed/min/mg protein | 220 mmol ester hydrolyzed/min/mg protein
COC(=O)C(O)c1ccccc1 (stereo not drawn) [Substrate 21] | – | – | usually poor substrates | <0.1 mmol ester hydrolyzed/min/mg protein | <0.2 mmol ester hydrolyzed/min/mg protein | <0.1 mmol ester hydrolyzed/min/mg protein | <2 mmol ester hydrolyzed/min/mg protein | <0.1 mmol ester hydrolyzed/min/mg protein | <2 mmol ester hydrolyzed/min/mg protein | 0.04 mmol ester hydrolyzed/min/mg protein
CCCC(=O)OC(C)c1ccccc1 (single isomer, unassigned) [Substrate 38] | – | higher estimated enantioselectivities with most ThermoGen esterases | – | – | – | – | – | – | – | –
CC(=O)Oc1ccccc1 [Substrate 26] | – | – | best substrates | 150 mmol ester hydrolyzed/min/mg protein | 390 mmol ester hydrolyzed/min/mg protein | 300 mmol ester hydrolyzed/min/mg protein | 190 mmol ester hydrolyzed/min/mg protein | 320 mmol ester hydrolyzed/min/mg protein | 30 mmol ester hydrolyzed/min/mg protein | 270 mmol ester hydrolyzed/min/mg protein
COC(=O)C(C)CBr (single isomer, unassigned) [Substrate 44] | – | estimated enantioselectivities above two with several esterases | – | – | – | – | – | – | – | –
C=COC(=O)CCCCCCCCCCCCC [Substrate 7] | – | – | – | 0.81 mmol ester hydrolyzed/min/mg protein | 1.0 mmol ester hydrolyzed/min/mg protein | 0.61 mmol ester hydrolyzed/min/mg protein | 21 mmol ester hydrolyzed/min/mg protein | 3.0 mmol ester hydrolyzed/min/mg protein | 7.6 mmol ester hydrolyzed/min/mg protein | 0.45 mmol ester hydrolyzed/min/mg protein
CCOC(=O)CN.Cl [Substrate 31] | – | – | usually poor substrates | <0.1 mmol ester hydrolyzed/min/mg protein | 1.4 mmol ester hydrolyzed/min/mg protein | <0.1 mmol ester hydrolyzed/min/mg protein | 13 mmol ester hydrolyzed/min/mg protein | <0.1 mmol ester hydrolyzed/min/mg protein | 6.0 mmol ester hydrolyzed/min/mg protein | 0.1 mmol ester hydrolyzed/min/mg protein
